# From patent publication US20260297070A1, “CYCLIC [COMPOUND LEFT OUT] WRN INHIBITORS” (Nimbus Wadjet, Inc., priority 2023, published 2026)
# Target: T1, human Werner helicase (WRN-BV08, Uniprot Q14191, amino acids 517-1235 with L1074F point mutation) (Homo sapiens, UniProt Q14191, L1074F)
# T1 construct: Uniprot Q14191, amino acids 517-1235 with L1074F point mutation; TEV-cleavable 8×His (C, cleaved yes); made in house; host or cells: Sf9 insect cells (baculovirus)
# Experiment: WRN (BV08) ADP-Glo Assay
# Type: biochemical
# Details: 0.15 nM WRN, 5 μM ATP, 0.1 nM DNA duplex, 15 min preincubation, 60 min at 25° C., pH 7.5, 1% DMSO; read-out: ADP-Glo_hWRN_IC50
# Method in brief: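 Untagged WRN (Sf9-expressed, TEV-cleaved) at 0.15 nM was preincubated 15 min at 25 °C with compound, then reacted 60 min at 25 °C with 5 μM ATP and 0.1 nM DNA duplex in Bicine pH 7.5, 1 mM MgCl2. ADP-Glo luminescence gave % inhibition; IC50 by four-parameter fit.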
# T1 sequence (Q14191 with tags, fused parts or gaps L1074F limits assumed): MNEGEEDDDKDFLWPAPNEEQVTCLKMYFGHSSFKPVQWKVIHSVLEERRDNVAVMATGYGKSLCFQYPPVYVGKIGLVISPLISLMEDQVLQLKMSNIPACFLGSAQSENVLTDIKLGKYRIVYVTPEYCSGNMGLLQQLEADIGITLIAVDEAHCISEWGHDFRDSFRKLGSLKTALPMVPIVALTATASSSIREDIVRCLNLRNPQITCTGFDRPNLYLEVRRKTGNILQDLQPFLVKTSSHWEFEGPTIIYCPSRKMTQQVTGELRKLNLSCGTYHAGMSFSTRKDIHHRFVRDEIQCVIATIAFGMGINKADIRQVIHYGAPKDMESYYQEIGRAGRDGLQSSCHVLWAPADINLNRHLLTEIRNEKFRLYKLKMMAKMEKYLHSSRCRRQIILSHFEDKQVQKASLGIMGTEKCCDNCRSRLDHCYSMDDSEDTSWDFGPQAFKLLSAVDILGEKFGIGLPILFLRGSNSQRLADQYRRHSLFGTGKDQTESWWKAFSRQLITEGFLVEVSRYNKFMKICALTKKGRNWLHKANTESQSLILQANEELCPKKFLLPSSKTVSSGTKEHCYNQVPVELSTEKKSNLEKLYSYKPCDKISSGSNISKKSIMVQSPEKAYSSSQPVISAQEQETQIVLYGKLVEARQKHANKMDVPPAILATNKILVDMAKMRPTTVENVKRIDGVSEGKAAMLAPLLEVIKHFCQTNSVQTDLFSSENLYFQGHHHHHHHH
row,SMILES,IC50 [µM]
1,"CN(C)C(=O)CC(C(=O)N(Cc1ccnc(C(C)(C)O)c1)C1C=CS(=O)(=O)C1)c1ccc(S(F)(F)(F)(F)F)cc1 (stereo not shown) [I-460, N-(1,1-dioxo-2,3-dihydro-1lambda6-thiophen-3-yl)-N-{[2-(2-hydroxypropan-2-yl)pyridin-4-yl]methyl}-N′,N′-dimethyl-2-[4-(pentafluoro-lambda6-sulfanyl)phenyl]butanediamide]",> 50
2,"COc1cc(CN(C(=O)Cc2ncc(-c3ccc(F)cc3)cc2F)C2C=CS(=O)(=O)C2)ccn1 (stereo not shown) [I-172, N-(1,1-dioxo-2,3-dihydro-1lambda6-thiophen-3-yl)-2-[3-fluoro-5-(4-fluorophenyl)pyridin-2-yl]-N-[(2-methoxypyridin-4-yl)methyl]acetamide]",0.5 to 5
3,"COc1cc(CN(C(=O)Cn2cc(-c3ccccc3F)cn2)C2C=CS(=O)(=O)C2)ccn1 (stereo not shown) [I-134, N-(1,1-dioxo-2,3-dihydro-1lambda6-thiophen-3-yl)-2-[4-(2-fluorophenyl)-1H-pyrazol-1-yl]-N-[(2-methoxypyridin-4-yl)methyl]acetamide]",0.5 to 5
4,"COc1ccc2c(CC(=O)N(Cc3ccncc3)C3C=CS(=O)(=O)C3)c[nH]c2c1 (stereo not shown) [I-541, N-(1,1-dioxo-2,3-dihydro-1lambda6-thiophen-3-yl)-2-(6-methoxy-1H-indol-3-yl)-N-[(pyridin-4-yl)methyl]acetamide]",> 50
5,"CC(C)(O)c1cc(CN(C(=O)C(c2ccc(-c3ccc(F)c(F)c3)cc2F)n2cccn2)C2C=CS(=O)(=O)C2)ccn1 (single isomer, unassigned) [I-670, (2R*)-N-[(3R**)-1,1-dioxo-2,3-dihydro-1lambda6-thiophen-3-yl]-N-{[2-(2-hydroxypropan-2-yl)pyridin-4-yl]methyl}-2-(1H-pyrazol-1-yl)-2-{3,3′,4′-trifluoro-[1,1′-biphenyl]-4-yl}acetamide]",0.5 to 5
6,"Cc1cccn1-c1ccc2c(c1)CC(C(=O)N(Cc1ccnc(C(C)(C)O)c1)[C@@H]1C=CS(=O)(=O)C1)O2 (single isomer, unassigned) [I-607]",< 0.5
7,"COc1cc(CN(C(=O)Cn2cnc(-c3ccc(F)cc3)c2)[C@@H]2C=CS(=O)(=O)C2)ccn1 [I-597, N-[(3R)-1,1-dioxo-2,3-dihydro-1lambda6-thiophen-3-yl]-2-[4-(4-fluorophenyl)-1H-imidazol-1-yl]-N-[(2-methoxypyridin-4-yl)methyl]acetamide]",> 50
8,"COc1cc(CN(C(=O)Cn2nc3ccc(C(F)(F)F)cc3c2C)[C@@H]2C=CS(=O)(=O)C2)ccn1 [I-766, N-[(3R)-1,1-dioxo-2,3-dihydro-1lambda6-thiophen-3-yl]-N-[(2-methoxypyridin-4-yl)methyl]-2-[3-methyl-5-(trifluoromethyl)-2H-indazol-2-yl]acetamide]",5 to 10
9,"COc1cc(CN(C(=O)C(C(=O)N(C)C)c2ccc(-c3ccc(F)cc3)cc2F)C2C=CS(=O)(=O)C2)ccn1 (single isomer, unassigned) [I-235, (2R**)-2-{3,4′-difluoro-[1,1′-biphenyl]-4-yl}-N-[(3R*)-1,1-dioxo-2,3-dihydro-1lambda6-thiophen-3-yl]-N-[(2-methoxypyridin-4-yl)methyl]-N′,N′-dimethylpropanediamide]",5 to 10
10,"COc1cc(CN(C(=O)C(c2ccc(-c3ccc(F)c(F)c3)cc2F)n2ccc(C)n2)[C@@H]2C=CS(=O)(=O)C2)ccn1 (single isomer, unassigned) [I-737, (2R*)-N-[(3R)-1,1-dioxo-2,3-dihydro-1lambda6-thiophen-3-yl]-N-[(2-methoxypyridin-4-yl)methyl]-2-(3-methyl-1H-pyrazol-1-yl)-2-{3,3′,4′-trifluoro-[1,1′-biphenyl]-4-yl}acetamide]",< 0.5
11,"CCN(CC)C(=O)C(C(=O)N(Cc1ccnc(C(C)(C)O)c1)C1C=CS(=O)(=O)C1)c1ccc(-c2ccc(F)c(F)c2)cc1F (stereo not shown) [I-62, N′-(1,1-dioxo-2,3-dihydro-1lambda6-thiophen-3-yl)-N,N-diethyl-N′-{[2-(2-hydroxypropan-2-yl)pyridin-4-yl]methyl}-2-{3,3′,4′-trifluoro-[1,1′-biphenyl]-4-yl}propanediamide]",< 0.5
12,"COCCN(C)C(=O)C(C(=O)N(Cc1ccnc(C(C)(C)O)c1)[C@@H]1C=CS(=O)(=O)C1)c1ccc(-c2ccc(F)c(F)c2)cc1F (stereo partly drawn) [I-20, N′-[(3R)-1,1-dioxo-2,3-dihydro-1lambda6-thiophen-3-yl]-N′-{[2-(2-hydroxypropan-2-yl)pyridin-4-yl]methyl}-N-(2-methoxyethyl)-N-methyl-2-{3,3′,4′-trifluoro-[1,1′-biphenyl]-4-yl}propanediamide]",< 0.5
13,"O=C(O)c1ccc(CN(C(=O)Cc2ccc(-n3cccc3)cc2F)C2C=CS(=O)(=O)C2)cc1 (stereo not shown) [I-185, 4-{[N-(1,1-dioxo-2,3-dihydro-1lambda6-thiophen-3-yl)-2-[2-fluoro-4-(1H-pyrrol-1-yl)phenyl]acetamido]methyl}benzoic acid]",0.5 to 5
14,"COc1ccc(C(F)(F)C(=O)N(Cc2ccncc2)C2C=CS(=O)(=O)C2)cc1 (stereo not shown) [I-649, N-(1,1-dioxo-2,3-dihydro-1lambda6-thiophen-3-yl)-2,2-difluoro-2-(4-methoxyphenyl)-N-[(pyridin-4-yl)methyl]acetamide]",> 50
15,"COc1cc(CN(C(=O)C(OC)c2ccc(-c3ccc(F)cc3)cc2F)C2C=CS(=O)(=O)C2)ccn1 (single isomer, unassigned) [I-405, (2R*)-2-{3,4′-difluoro-[1,1′-biphenyl]-4-yl}-N-[(3R**)-1,1-dioxo-2,3-dihydro-1lambda6-thiophen-3-yl]-2-methoxy-N-[(2-methoxypyridin-4-yl)methyl]acetamide]",> 50
16,"COc1cc(CN(C(=O)C(c2ccc(-c3ccc(F)c(F)c3)cc2F)n2cccn2)[C@@H]2C=CS(=O)(=O)C2)ccn1 (single isomer, unassigned) [I-672, (2R*)-N-[(3R)-1,1-dioxo-2,3-dihydro-1lambda6-thiophen-3-yl]-N-[(2-methoxypyridin-4-yl)methyl]-2-(1H-pyrazol-1-yl)-2-{3,3′,4′-trifluoro-[1,1′-biphenyl]-4-yl}acetamide]",5 to 10
17,"CC(C)(O)c1cc(CN(C(=O)Cc2ccc(-n3cccc3)cc2)C2C=CS(=O)(=O)C2)ccn1 (stereo not shown) [I-152, N-(1,1-dioxo-2,3-dihydro-1lambda6-thiophen-3-yl)-N-{[2-(2-hydroxypropan-2-yl)pyridin-4-yl]methyl}-2-[4-(1H-pyrrol-1-yl)phenyl]acetamide]",0.5 to 5
18,"CN(C)Cc1cccn1-c1ccc(CC(=O)N(Cc2ccccc2)C2C=CS(=O)(=O)C2)cc1 (stereo not shown) [I-567, N-benzyl-2-(4-{2-[(dimethylamino)methyl]-1H-pyrrol-1-yl}phenyl)-N-(1,1-dioxo-2,3-dihydro-1lambda6-thiophen-3-yl)acetamide]",> 50
19,"O=C(O)c1ccc(CN(C(=O)Cc2ccc(-n3cccc3)cc2)C2C=CS(=O)(=O)C2)cc1 (stereo not shown) [I-275, 4-{[N-(1,1-dioxo-2,3-dihydro-1lambda6-thiophen-3-yl)-2-[4-(1H-pyrrol-1-yl)phenyl]acetamido]methyl}benzoic acid]",10 to 50

# The next lines start with the values.
row,IC50 [µM],SMILES
1,> 50,"O=C(Cc1ccc(-c2ccc(F)cc2)c(C(F)F)c1)N(Cc1ccncc1)C1C=CS(=O)(=O)C1 (stereo not shown) [I-401, 2-[2-(difluoromethyl)-4′-fluoro-[1,1′-biphenyl]-4-yl]-N-(1,1-dioxo-2,3-dihydro-1lambda6-thiophen-3-yl)-N-[(pyridin-4-yl)methyl]acetamide]"
2,> 50,"COc1cccc(-c2ccc(CC(=O)N(Cc3ccncc3)C3C=CS(=O)(=O)C3)cc2)c1 (stereo not shown) [I-556, N-(1,1-dioxo-2,3-dihydro-1lambda6-thiophen-3-yl)-2-{3′-methoxy-[1,1′-biphenyl]-4-yl}-N-[(pyridin-4-yl)methyl]acetamide]"
3,5 to 10,"COc1cc(CN(C(=O)Cc2ccc(-c3ccc(F)cn3)c(O)c2)C2C=CS(=O)(=O)C2)ccn1 (stereo not shown) [I-668, N-(1,1-dioxo-2,3-dihydro-1lambda6-thiophen-3-yl)-2-[4-(5-fluoropyridin-2-yl)-3-hydroxyphenyl]-N-[(2-methoxypyridin-4-yl)methyl]acetamide]"
4,0.5 to 5,"COc1cc(CN(C(=O)Cc2ccc(-c3ccc(F)cc3)cc2Cl)C2C=CS(=O)(=O)C2)ccn1 (stereo not shown) [I-136, 2-{3-chloro-4′-fluoro-[1,1′-biphenyl]-4-yl}-N-(1,1-dioxo-2,3-dihydro-1lambda6-thiophen-3-yl)-N-[(2-methoxypyridin-4-yl)methyl]acetamide]"
5,> 50,"O=C(Cc1cccc(Oc2ccccc2)c1)N(Cc1ccncc1)C1C=CS(=O)(=O)C1 (stereo not shown) [I-510, N-(1,1-dioxo-2,3-dihydro-1lambda6-thiophen-3-yl)-2-(3-phenoxyphenyl)-N-[(pyridin-4-yl)methyl]acetamide]"
6,> 50,"O=C(CCc1ccc(C(F)(F)F)cc1)N(Cc1ccncc1)C1C=CS(=O)(=O)C1 (stereo not shown) [I-507, N-(1,1-dioxo-2,3-dihydro-1lambda6-thiophen-3-yl)-N-[(pyridin-4-yl)methyl]-3-[4-(trifluoromethyl)phenyl]propanamide]"
7,> 50,"O=C(Cc1ccc(OCc2ccccc2)cc1)N(Cc1ccncc1)C1C=CS(=O)(=O)C1 (stereo not shown) [I-501, 2-[4-(benzyloxy)phenyl]-N-(1,1-dioxo-2,3-dihydro-1lambda6-thiophen-3-yl)-N-[(pyridin-4-yl)methyl]acetamide]"
8,> 50,"O=C(Cc1ccc(-c2nccs2)cc1)N(Cc1ccncc1)C1C=CS(=O)(=O)C1 (stereo not shown) [I-466, N-(1,1-dioxo-2,3-dihydro-1lambda6-thiophen-3-yl)-N-[(pyridin-4-yl)methyl]-2-[4-(1,3-thiazol-2-yl)phenyl]acetamide]"
9,10 to 50,"O=C(Cc1ccc(OC(F)F)cc1)N(Cc1ccncc1)C1C=CS(=O)(=O)C1 (stereo not shown) [I-331, 2-[4-(difluoromethoxy)phenyl]-N-(1,1-dioxo-2,3-dihydro-1lambda6-thiophen-3-yl)-N-[(pyridin-4-yl)methyl]acetamide]"
